Earlier results on one substance are cited in patent publication US20020115211A1, “A METHOD FOR IN VITRO MATURATION OF HUMAN GAMETES” (MEDI-CULT A/S, priority 1998, published 2002).

This series concerns immature human gametes. The settings on record: presence in the culture medium; recent research.

As to “insulin: Component of the SSR media additives”, the “effect on the chance for successful pregnancy” value was “negative effect”.
